Test: Oxidized product content by HPLC on storage
Assay type: physicochemical
Procedure: In order to clarify that the polypeptides of the present invention are not easily oxidized, oxidized product content (%) of Arg^17 -PACAP27 obtained in Example 1 below were assayed when stored both in lyophylization and in aqueous acetic acid. The assay of the oxidized product content (%) were conducted on High Performance Liquid Chromatography (HPLC). Conditions of HPLC are as follows:
Solution A 0.1% aqueous trifluoroacetic acid
Solution B acetonitrile containing 0.1% trifluoroacetic acid
A linear gradient elution from solution A to solution
Elution time of Arg^17 -PACAP27:19.9 min

Oxidized product (%) just after synthesizing (just after synthesizing): 0% | Oxidized product (%) aqueous acetic acid (stored in aqueous acetic acid): 0% | Oxidized product (%) lyophilization store (stored in lyophilization): 0%
Compound: CC[C@H](C)[C@H](NC(=O)CNC(=O)[C@H](CC(=O)O)NC(=O)[C@H](CO)NC(=O)[C@@H](N)Cc1c[nH]cn1)C(=O)N[C@@H](Cc1ccccc1)C(=O)N[C@H](C(=O)N[C@@H](CC(=O)O)C(=O)N[C@@H](CO)C(=O)N[C@@H](Cc1ccc(O)cc1)C(=O)N[C@@H](CO)C(=O)N[C@@H](CCCNC(=N)N)C(=O)N[C@@H](Cc1ccc(O)cc1)C(=O)N[C@@H](CCCNC(=N)N)C(=O)N[C@@H](CCCCN)C(=O)N[C@@H](CCC(N)=O)C(=O)N[C@@H](CCCNC(=N)N)C(=O)N[C@@H](C)C(=O)N[C@H](C(=O)N[C@@H](CCCCN)C(=O)N[C@@H](CCCCN)C(=O)N[C@@H](Cc1ccc(O)cc1)C(=O)N[C@@H](CC(C)C)C(=O)N[C@@H](C)C(=O)N[C@@H](C)C(=O)N[C@H](C(=O)N[C@@H](CC(C)C)C(N)=O)C(C)C)C(C)C)[C@@H](C)O [Arg^17 -PACAP27]

— US5623050A, “Stable polypeptides having c-AMP production enhancing activity and the use thereof” (Takeda Chemical Industries, Ltd., priority 1991, dated 1997)
